Patent US12497431B2, “Modified peptide fragments of Cav-1 protein and the use thereof in the treatment of fibrosis” (Rein Therapeutics, Inc., priority 2018, dated 2025)
Non-standard residues stand in square brackets, D forms with d. Residues, ends and D or L forms follow the SMILES beside them. No end group written: not given here. Orn = NCCC[C@H](N)C(=O)O

Legend:
[1] = Cav-1 peptide solubility in Tris Buffered Saline, pH 7.51 (absorbance at 600 nm); format: physicochemical; conditions: for UV (Abs) at dissolution / UV (Abs) after rest: absorbance at 600 nm, 50 mg in 5 mL TBS pH 7.51; for UV (Abs) at dissolution: immediately after dissolution for insoluble peptides, after 10 minutes for soluble peptides; for UV (Abs) after rest: again after 10 minutes (APi2348 15 min, APi2352 5 min, APi2353 15 min, APi2345 only after 20 min)
Procedure: In order to determine which peptides may be most soluble in a liquid formulation, 50 mg of each Cav-1 peptide was dissolved in 5 mL of Tris Buffered Saline, pH 7.51. Each sample was vortexed to help the sample dissolve completely. The absorbance at 600 nm was measured immediately after dissolution of the peptides for insoluble peptides, or after 10 minutes for soluble peptides. Absorbance was measured again after 10 minutes for insoluble peptides except for samples APi2348, APi2352, APi2353 which were measured a second time at 15 minutes, 5 minutes, or 15 minutes after dissolution, respectively.

[2] = system: Idiopathic Pulmonary Fibrosis (IPF) cell line 2051; assay: Western blot of SMA and tubulin in IPF cells treated with Cav-1 peptides; format: cell-based; conditions: 2 days treatment, 10 uM peptide (LTI-03 10 and 90 uM), ImageJ ratio (FIG. 2)
Procedure: Cav-1 peptides were dissolved in DMSO to make 10 mM stock solutions. 10 mM stock solutions of each peptide were then diluted in HBSS to make 900 μM working stock solutions. The DMSO resuspended polypeptides as well as the working stocks were stored at −20 deg C. For culture media, working stocks were added to DMEM culture media to a final concentration of 10 μM of the Cav-1 peptide.
Idiopathic Pulmonary Fibrosis (IPF) cell line 2051 was purchased and IPF cells from the fourth passage were seeded in 100 mm plates containing DMEM, 10% FBS, and 1% P/S. IPF cells were washed with 4 mL DMEM+1% P/S and serum starved overnight. Cells were then treated for 2 days with either 44 uL HBSS (negative control), 10 uM LTI-03 (SEQ ID NO: 2), 90 uM LTI-03 (positive control), 10 uM APi2350, 10 uM APi2354, 10 uM APi2355, 10 uM APi2356 or with 20 uL of DMSO (negative control).
After 2 days of treatment, cells were washed once in cold, sterile HBSS. HBSS was removed, and 150 uL of lysis buffer with protease inhibitor cocktail was added to the cells. Cells were incubated with lysis buffer for 10 minutes. Cell lysates were scraped from the plates and collected. Cell lysates were then sonicated twice. Following sonication, the lysates were centrifuged at 13,000 RPM for 20 minutes. Lysates were then flash frozen in liquid nitrogen, thawed, vortexed, and centrifuged again at 13,000 RPM for 30 minutes. The supernatant was then collected and the pellet was discarded. The concentration of cell lysates was then determined by BCA assay.
Western blots were performed to evaluate the presence the effects of treatments. Briefly, 12 ug of each lysate was run on a 10% polyacrylamide gel. The gel was then transferred to a membrane and washed. Primary antibodies against smooth muscle actin (SMA) and Tubulin Results of the western blot can be seen in FIG. 1. The treatment for each of the lysates in the pictured lanes are: 1: Untreated, 2: 10 μM LTI-03, 3: 90 μM LTI-03, 4: 10 μM APi2350, 5: 10 μM APi2354, 6: 10 μM APi 2355, 7: 10 μM APi2356, and 8: DMSO.
Western blots were photographed and analyzed with ImageJ to determine a ratio of smooth muscle actin to tubulin (FIG. 2).

[3] = system: AEC2 cells of non-specific interstitial pneumonia (NSIP) precision cut lung slices; assay: Lysotracker staining of AEC2 cells in NSIP precision cut lung slices; format: cell-based; conditions: NSIP PCLS, 48 h after a single treatment with 10, 100, or 500 μM
Description: (§1) To assess the effect of Cav-1 peptide APi2355 (SEQ ID NO: 8) on AEC2 cell viability, surgical biopsies were obtained for the preparation of non-specific interstitial pneumonia precision cut lung slices (PCLS). One individual with non-specific interstitial pneumonia (NSIP) and another with end-stage IPF were processed. Lysotracker staining, which stains acidic compartments in live cells and selectively accumulates in the lamellar bodies of lung AEC2 cells (Van der Velden et al., 2013), was performed. Cav-1 peptide was suspended in DMEM/5% FBS, and PCLS slices (n=5 replicates/treatment group) were treated with 10, 100, or 500 μM LTI-03 or APi2355 (Var 55). Lysotracker staining (Green DND-26, Promega) was performed on NSIP PCLS 48 h after a single treatment. […] In addition, lysotracker staining (Red DND-99, Promega) was performed on end-stage IPF on days 1, 2, 3, 5, and 7 following daily treatment with LTI-03 or APi2355.

[4] = system: AEC2 cells of end-stage IPF precision cut lung slices; assay: Lysotracker staining of AEC2 cells in end-stage IPF precision cut lung slices; format: cell-based; conditions: end-stage IPF PCLS, daily treatment, staining on days 1, 2, 3, 5, and 7; 10, 100, or 500 μM
Description: as §1

[5] = TBS pH 7.51, compared to other tested peptides

Molecule | UV (Abs) at dissolution [1] | UV (Abs) after rest [1] | other results
OASFTTFTVTOS-NH2 ([Orn]ASFTTFTVT[Orn]S-NH2; N-terminus assumed; SMILES CC(C)[C@H](NC(=O)[C@@H](NC(=O)[C@H](Cc1ccccc1)NC(=O)[C@@H](NC(=O)[C@@H](NC(=O)[C@H](Cc1ccccc1)NC(=O)[C@H](CO)NC(=O)[C@H](C)NC(=O)[C@@H](N)CCCN)[C@@H](C)O)[C@@H](C)O)[C@@H](C)O)C(=O)N[C@H](C(=O)N[C@@H](CCCN)C(=O)N[C@@H](CO)C(N)=O)[C@@H](C)O) [APi2356, O = Ornithine] | 0.001 | – | solubility at pH 7.51 (in words) ([1]; pH 7.51): increased solubility; expression of SMA relative to tubulin [2]: increased the expression of SMA relative to tubulin
Ac-KASFTTFTVTK-NH2 [APi2347, Ac-KASFTTFTVTK-NH2] | 2.347 | 2.284 | –
Ac-OASFTTFTVTOS-NH2 [APi2357] | 2.293 | – | –
Ac-OASFTTFTVTK-NH2 [APi2349] | 1.870 | 1.827 | –
KASFTTFTVTKGS-NH2 [APi2350] | – | – | solubility at pH 7.51 (in words) ([1]; pH 7.51): increased solubility; expression of SMA relative to tubulin [2]: increased the expression of SMA relative to tubulin
H-DSGKASFTTFTVTK-NH2 [APi2352, DSGKASFTTFTVTK-NH2] | 2.468 | 2.398 | –
Ac-DSGKASFTTFTVTK-NH2 [APi2353, Ac-DSGKASFTTFTVTK-NH2] | 3.000 | 3.000 | –
H-FTTFTVTK-NH2 [APi2345, FTTFTVTK-NH2] | – | 1.058 | solubility at pH 7.51 (in words) [1, 5]: dissolution was incomplete
CC(=O)N[C@H](C)C(=O)N[C@H](C)C(=O)N[C@@H](CCC(=O)O)C(=O)NCC(=O)N[C@@H](CCCCN)C(=O)N[C@@H](C)C(=O)N[C@@H](CO)C(=O)N[C@@H](Cc1ccccc1)C(=O)N[C@H](C(=O)N[C@H](C(=O)N[C@@H](Cc1ccccc1)C(=O)N[C@H](C(=O)N[C@H](C(=O)N[C@H](C(=O)N[C@@H](CCCCN)C(=O)NCC(=O)N[C@@H](CO)C(=O)N[C@H](C)C(=O)N[C@H](C)C(N)=O)[C@@H](C)O)C(C)C)[C@@H](C)O)[C@@H](C)O)[C@@H](C)O [APi2355, Ac-aaEGKASFTTFTVTKGSaa-NH2] (Ac-[dA][dA]EGKASFTTFTVTKGS[dA][dA]-NH2) | 0.000 | 0.000 | solubility at pH 7.51 (in words) [1, 5]: increased solubility; expression of SMA relative to tubulin [2]: increased the expression of SMA relative to tubulin; AEC2 cell viability (lysotracker staining) [3]: strong dose-dependent increase; AEC2 cell viability (lysotracker staining) [4]: observed out to day 3
H-FTTFTVT-NH2 [APi2344, FTTFTVT-NH2] | 2.409 | 1.437 | –
CC(C)[C@H](NC(=O)[C@@H](NC(=O)[C@H](Cc1ccccc1)NC(=O)[C@@H](NC(=O)[C@@H](NC(=O)[C@H](Cc1ccccc1)NC(=O)[C@H](CO)NC(=O)[C@H](C)NC(=O)[C@@H](N)CCCN)[C@@H](C)O)[C@@H](C)O)[C@@H](C)O)C(=O)N[C@H](C(=O)N[C@@H](CCCCN)C(N)=O)[C@@H](C)O [APi2348, OASFTTFTVTK-NH2] (H-[Orn]ASFTTFTVTK-NH2) | 0.846 | – | –
H-KASFTTFTVTK-NH2 [APi2346, KASFTTFTVTK-NH2] | 1.648 | 1.622 | –
CC(C)[C@H](NC(=O)[C@@H](NC(=O)[C@H](Cc1ccccc1)NC(=O)[C@@H](NC(=O)[C@@H](NC(=O)[C@H](Cc1ccccc1)NC(=O)[C@H](CO)NC(=O)[C@H](C)NC(=O)[C@H](CCCCN)NC(=O)CNC(=O)[C@H](CCC(=O)O)NC(=O)[C@@H](C)NC(=O)[C@@H](C)N)[C@@H](C)O)[C@@H](C)O)[C@@H](C)O)C(=O)N[C@H](C(=O)N[C@@H](CCCCN)C(=O)NCC(=O)N[C@@H](CO)C(=O)N[C@H](C)C(=O)N[C@H](C)C(N)=O)[C@@H](C)O [APi2354, aaEGKASFTTFTVTKGSaa-NH2] (H-[dA][dA]EGKASFTTFTVTKGS[dA][dA]-NH2) | 0.008 | 0.007 | solubility at pH 7.51 (in words) [1, 5]: increased solubility; expression of SMA relative to tubulin [2]: increased the expression of SMA relative to tubulin
Ac-KASFTTFTVTKGS-NH2 [APi2351, Ac-KASFTTFTVTKGS-NH2] | 2.523 | 2.377 | –
